From patent publication US6548543B1, “Remedies or preventives containing cyclopentenone compounds as the active ingredient” (Takara Shuzo Co., Ltd., priority 1998, dated 2003)

Columns and labels:
[1] = system: NK cells; type: in vivo, ddY mice; conditions: mice administered intraperitoneally
Experimental: ddY mice (female, 7 weeks old) were purchased from Japan SLC and pre-bred for 1 week before using in experiments.
1×10^6 Ehrlich ascites carcinoma cells were intraperitoneally inoculated to each mouse. 10 mg/kg of cyclopentenone, 30 mg/kg of GM or 10 mg/kg of dipropionylcyclopentenone was intraperitoneally administered to the mouse on the day after the inoculation. Saline was administered to a control mouse.
A spleen was taken out from the mouse 10 days after the inoculation with cancer cells, finely minced and suspended in RPMI-1640 medium containing 10% FCS (HyClone) to obtain a single cell suspension. Adhesive cells adhered to a plastic Petri dish were removed from the cell suspension and non-adhesive cells were used as NK cells.
The NK cells were suspended in RPMI-1640 medium containing 10% FCS at a concentration of 6×10^6/ml. 100 μl/well of the suspension was seeded into a microtiter plate.
Target cells were prepared as follows. 3700 kBq of ^51Cr (Amersham) was added to 1×10^6 YAC-1 cells (Dainippon Pharmaceutical). The cells were cultured at 37° C. for 1 hour for labeling. The labeled cells were washed twice and then suspended in RPMI-1640 medium containing 10% FCS at a concentration of 2×10^5 cells/ml. […] The radioactivity (experimental value) was measured using an auto gamma counter.
100 μl of the culture medium was added to the reaction system in place of the NK cells and the radioactivity was measured in order to measure the radioactivity spontaneously released from the target cells (control value).
Furthermore, the radioactivity released into the supernatant when 1% Triton (Nacalai Tesque) was added to the reaction system to lyse the 51Cr-labeled YAC-1 cells was measured in order to measure the total radioactivity contained in the reaction system (total radioactivity value).
The cytotoxicity (%) specifically mediated by the NK cells can be determined according to the following equation.
Cytotoxicity (%)=[(experimental value−control value)/(total radioactivity value−control value)]×100

[2] = system: λ-carrageenan pedal edema; assay: Carrageenan induced pedal edema; type: in vivo, Lewis rats; conditions: rat, 3 hours after carrageenan
Experimental: Lewis rats (male, 9 weeks old, weighing about 250 g) were purchased from Seac Yoshitomi.
Rats were fasted from 18 hours before the start of the experiments. Dipropionylcyclopentenone, dihexanoylcyclopentenone, di-2-hexenoylcyclopentenone, diisobutyrylcyclopentenone or dibenzoylcyclopentenone dissolved in olive oil (Nacalai Tesque) was orally administered to 4 rats per group at 1 or 10 mg/10 ml/kg.
100 μl of 1% λ-carrageenan (Wako Pure Chemical Industries) suspension in saline (Otsuka Pharmaceutical) was injected into the sole of right paw of a rat 0.5 hour after the administration of test substance to induce pedal edema. The volume of the right foot of the rat was measured using an instrument for measuring pedal volume (Ugo Basile) 3 hours after the injection with carrageenan. The measurements were expressed as the rate of increase calculated based on the volume of the right foot of each rat measured before the administration with carrageenan.
FIG. 5 illustrate the relationship between the amount of cyclopentenone derivative administered and the rate of increase in edema in foot. The horizontal axis represents the dose […] and the vertical axis represents the rate of increase (%).

[3] = system: delayed hypersensitivity pedal edema; assay: Delayed hypersensitivity (DTH) with sheep erythrocytes; type: in vivo, C57BL/6 mice; conditions: once a day for 3 days
Experimental: C57BL/6 mice (male, 7 weeks old, weighing about 25 g) were purchased from Japan SLC and pre-bred for 1 week before using in experiments.
Sheep erythrocytes (Shimizu Laboratory Supplies) as raising antigens were washed three times with saline (Otsuka Pharmaceutical) and suspended in saline at a concentration of 1×10^9 cells/ml. 200 μl of the suspension was intraperitoneally injected into the mouse for sensitization with the antigen. 40 μl of similarly prepared antigen was injected to the sole of right paw 5 days after the sensitization for antigenic induction to induce pedal edema.
Dipropionylcyclopentenone dissolved in saline at a varying concentration was intraperitoneally or orally administered to 5 mice per group once a day for 3 days from the day of sensitization with the antigen. The volume of the right foot of the mouse was measured using an instrument for measuring pedal volume (Ugo Basile) 2 days after the antigenic induction and used as an index of DTH. The measurements were expressed as the rate of increase calculated according to the following equation based on the volume of the right foot of each mouse measured before the antigenic induction.
Rate of increase=(volume of right foot after antigenic induction−volume of right foot before antigenic induction)/volume of right foot before antigenic induction

[4] = system: mixed spleen lymphocytes (BALB/c and C57BL/6); assay: Mixed lymphocyte reaction, 3H-thymidine uptake; type: cell-based, mouse; conditions: 1 μM
Experimental: (2) Spleens were taken out from a BALB/c mouse (male, 6 weeks old, purchased from Japan SLC) and a C57BL/6 mouse (male, 6 weeks old, purchased from Japan SLC) and spleen lymphocytes were obtained according to the method as described in Example 11-(1). The concentration of each of the cell suspensions was adjusted to 2×10^6 cell/ml, 100 μl portions from respective suspensions were mixed together and seeded into a 96-well microtiter plate. Dipropionylcyclopentenone at a varying concentration was added to the wells other than the control well, and the plate was incubated at 37° C. for 4 days in a CO2 incubator. After incubation, 1 μCi of ^3H-thymidine was added to each well, and the plate was incubated for additional 1 day. The uptake into cells was measured using a liquid scintillation counter.
FIG. 8 illustrates the relationship between the concentration of dipropionylcyclopentenone and the amount of ^3H-thymidine uptake. The horizontal axis represents the dipropionylcyclopentenone concentration (μM) and the vertical axis represents ^3H-thymidine uptake (CPM). The open bar represents the ^3H-thymidine uptake when cells from one of the lines were used independently. The shaded bar represents the ^3H-thymidine uptake when cells from both of the lines were mixed together.

[5] = system: Ehrlich ascites carcinoma (EAC); assay: Ascitic cancer EAC, prolongation of survival; type: in vivo, ddY mouse; conditions: 5 successive days; for 30-day survival number: groups of 8 mice
Experimental: (3) The carcinostatic activities of dipropionylcyclopentenone and diisobutyrylcyclopentenone against various ascitic cancers were examined using two types of cancer cells, Ehrlich ascites carcinoma (EAC) and Meth A, administered intraperitoneally or orally at a varying dose.
Dipropionylcyclopentenone or diisobutyrylcyclopentenone was intraperitoneally or orally administered for 5 successive days from the day after the transplantation with cancer cells. Injectable distilled water was administered to a control group in a similar manner. Average days of survival, prolongation rate and 30-day survival number were calculated for groups each consisting of 8 mice.

CCC(=O)OC1C=CC(=O)C1OC(=O)CC (stereo not shown)
Activation of NK cells (statement) [1]: Activation of NK cells was observed
Suppression of edema in foot (FIG. 5) ([2]; 1 mg/kg oral): Tendency to suppress the edema in the foot
Suppression of edema in foot (FIG. 5) ([2]; 10 mg/kg oral): significant suppression
Suppression of edema in foot, DTH (FIG. 6) ([3]; 1 mg/kg intraperitoneal): Tendency to suppress the edema in the foot
Suppression of edema in foot, DTH (FIG. 6) ([3]; 10 mg/kg intraperitoneal): significant suppression
Suppression of edema in foot, DTH (FIG. 6) ([3]; 30 mg/kg oral): significant suppression
Inhibition of mixed lymphocyte reaction (FIG. 8) [4]: almost completely inhibited
Average days of survival ([5]; intraperitoneal 10 mg/kg): 28.1 days
Prolongation rate ([5]; intraperitoneal 10 mg/kg): >225%
30-day survival number ([5]; intraperitoneal 10 mg/kg): 6
Average days of survival ([5]; oral 30 mg/kg): 24.1 days
Prolongation rate ([5]; oral 30 mg/kg): >193%
30-day survival number ([5]; oral 30 mg/kg): 4
